According to the NIST ThermoML archive (doi:10.1016/j.jct.2017.03.040):
Numbers after ± are expanded uncertainties.

Test: mn = molality of the nth substance listed, in mol/kg
Settings: 100 kPa, Liquid; for speed of sound: Frequency=3 MHz, Single path-length method; for mass density: Vibrating tube method

CCCCCn1cc[n+](C)c1.[Br-] [1-pentyl-3-methylimidazolium bromide] + O
Settings	mass density, 288.15 K [kg/m3]	mass density, 298.15 K [kg/m3]	mass density, 308.15 K [kg/m3]	mass density, 318.15 K [kg/m3]	speed of sound, 288.15 K [m/s]	speed of sound, 298.15 K [m/s]	speed of sound, 308.15 K [m/s]	speed of sound, 318.15 K [m/s]
m1 = 0.005	999.3 ± 0.3	997.23 ± 0.3	994.23 ± 0.3	990.42 ± 0.3	1467.7 ± 1	1497.3 ± 1	1520.3 ± 1	1536.7 ± 1
m1 = 0.01	999.5 ± 0.3	997.42 ± 0.3	994.42 ± 0.3	990.62 ± 0.3	1468.5 ± 1	1498 ± 1	1520.7 ± 1	1537.4 ± 1
m1 = 0.03	1000.31 ± 0.3	998.19 ± 0.3	995.2 ± 0.3	991.41 ± 0.3	1470.8 ± 1	1500.3 ± 1	1522.5 ± 1	1539.1 ± 1
m1 = 0.05	1001.11 ± 0.3	998.96 ± 0.3	995.98 ± 0.3	992.21 ± 0.3	1473.7 ± 1	1502.8 ± 1	1524.6 ± 1	1541 ± 1

N[C@@H](CS)C(=O)O [(R)-2-amino-3-mercaptopropanoic acid] + O
Settings	mass density, 288.15 K [kg/m3]	mass density, 298.15 K [kg/m3]	mass density, 308.15 K [kg/m3]	mass density, 318.15 K [kg/m3]	speed of sound, 288.15 K [m/s]	speed of sound, 298.15 K [m/s]	speed of sound, 308.15 K [m/s]	speed of sound, 318.15 K [m/s]
m1 = 0.09747	1003.7 ± 0.3	1001.64 ± 0.3	998.63 ± 0.3	994.82 ± 0.3	1474 ± 1	1503.6 ± 1	1525.8 ± 1	1541.9 ± 1
m1 = 0.1985	1008.47 ± 0.31	1006.41 ± 0.31	1003.4 ± 0.31	999.59 ± 0.31	1481.8 ± 1	1510.9 ± 1	1532.2 ± 1	1547.8 ± 1
m1 = 0.2986	1013.2 ± 0.31	1011.13 ± 0.31	1008.12 ± 0.31	1004.32 ± 0.31	1489.5 ± 1	1518 ± 1	1538.6 ± 1	1553.6 ± 1
m1 = 0.3968	1017.83 ± 0.31	1015.77 ± 0.31	1012.76 ± 0.31	1008.96 ± 0.31	1497.1 ± 1	1525.1 ± 1	1544.9 ± 1	1559.3 ± 1
m1 = 0.4932	1022.38 ± 0.32	1020.32 ± 0.32	1017.31 ± 0.32	1013.51 ± 0.32	1504.5 ± 1	1532 ± 1	1551 ± 1	1564.8 ± 1
m1 = 0.6	1027.42 ± 0.33	1025.36 ± 0.33	1022.35 ± 0.33	1018.55 ± 0.33	1512.7 ± 1	1539.6 ± 1	1557.8 ± 1	1571 ± 1
m1 = 0.6922	1031.77 ± 0.34	1029.71 ± 0.34	1026.7 ± 0.34	1022.9 ± 0.34	1519.8 ± 1	1546.2 ± 1	1563.6 ± 1	1576.4 ± 1
